Test [1] relates to mper1 promoter. The test is described as follows: Per1-luciferase reporter (pGL3-mPer1-7.2 kb) in transfected NIH 3T3 cells. It counts as cell-based, mouse. To be noted: NIH 3T3, pGL3-mPer1-7.2 kb; 10^−6 M; 7 hours; FIG. 14. The text has this:
FIG. 14 is a bar graph illustrating the effects of neurotransmitter analog treatment on NIH 3T3 cells transfected with pGL3-mPer1-7.2kb, which contains luciferase under control of a 7.2 kb region of the mper1 promoter. Cells were exposed to 10^−6 M forskolin as a positive control, 10^−6 M isoproterenol (a beta-adrenergic agonist), 10^−6 M propranolol (a beta-adrenergic antagonist), 10^−6 M phenylephrine (an alpha-adrenergic agonist), and 10^−6 M pentolamine (an alpha-adrenergic antagonist) for 7 hours.
H1299 cells were maintained in RPMI1640 (Gibco) with 10% FBS (Hyclone). NIH3T3 cells were maintained in DMEM (Gibco) with 10% FBS (Hyclone). The day before transfection, 3×10^5 cells/well were plated onto six-well plates. Cells were transfected with 500 ng of each expression plasmid, 100 ng of the firefly luciferase reporter construct and 2 ng of the Renilla luciferase control plasmid (pRL-SV40; Promega) using SuperFect transfection reagent (Qiagen) following the manufacturer's instructions. The Renilla luciferase control plasmid was cotrasfected to normalize transfection efficiency. When expression plasmids were omitted, same amount of the pcDNA3 plasmid was used to substitute the expression plasmids. Forty hours after transfection, cells were washed once with 1×PBS (Sigma) and lysed with 500 μl of passive lysis buffer (Promega). Luciferase activity of the cell lysate was assayed with the Dual-Luciferase Reporter Assay System (Promega) using a luminometer (Optocomp1; MGM Instruments) as recommended by the manufacturer.
A Per1-luciferase reporter plasmid was constructed essentially as described above, using a 7.2 kb fragment of the promoter region from mper1, forming pGL3-mPer1-7.2 kb. NIH 3T3 cells were transfected with pGL3-mPer1-7.2 kb as described above and cells were exposed to 10^−6 M forskolin as a positive control, 10^−6 M isoproterenol (a beta-adrenergic agonist), 10^−6 M propranolol (a beta-adrenergic antogonist), 10^−6 M phenylephrine (an alpha-adrenergic agonist), and 10^−6 M pentolamine (an alpha-adrenergic antagonist). Cells were exposed to the neurotransmitters for 7 hours and luciferase activity was measured as described above.
Background: A reporter such as luciferase makes a cellular process visible.

Test [2] has as its system mPer2 expression in the lin− cells. The test is described as follows: Effect on mPer2 expression in lin− bone marrow cells (relative quantitative RT-PCR). It is filed as cell-based, mouse. To be noted: 200 nM dexamethasone or 1 μM PMA, 1 or 2 hours, vs ethanol control. How it is done:
(§1) Bone marrow cells were incubated with ACK lysing buffer (0.15M NH4Cl, 1 mM KHCO3 and 0.1 mM Na2EDTA; pH7.2) at room temperature for 4 minutes to remove red blood cells. The lin^− (lineage marker-negative) bone marrow cells were obtained by depleting lineage marker-positive cells using the MACS magnetic separation system (Miltenyi Biotec, Auburn, Calif.) according to the manufacturer's instructions. The antibodies used were PE-labeled rat anti-mouse Gr-1, TER119, B220, CD4, CD8, and Mac-1 monoclonal antibodies (all from BD PharMingen, San Diego, Calif.). Briefly, the cells were incubated with the antibody cocktail for the lineage markers described above at 6-10° C. for 15 minutes. After two washes with 1×phosphate-buffered saline (PBS; Sigma, St. Louis, Mo.) supplemented with 0.5% FBS (Hyclone), the cells were incubated with anti-PE antibody-coated magnetic beads (Miltenyi Biotec) at 6-10° C. for 15 minutes. […]
(§2) For each RT-PCR experiment, samples from six time points were analyzed at the same time. […]
(§3) Within each PCR experiment, the linear range of amplification was first determined using cDNA pooled from 6 time points. […]
(§4) As a negative control, the products of the RT reactions, without reverse transcriptase, were subjected to the same PCR amplification. […] Their relative quantities were determined by using the Image-Pro Plus software (Media Cybernetics). […]

Test [3] deals with mPer1 expression in the lin− cells. The test is described as follows: Effect on mPer1 expression in lin− bone marrow cells (relative quantitative RT-PCR). It counts as cell-based, mouse. The conditions noted are these: 200 nM dexamethasone or 1 μM PMA, 1 or 2 hours, vs ethanol control. How it is done: as §1, §2, §3, §4
Test [4] concerns Rat-1 fibroblasts. The conditions noted are these: cultured Rat-1 fibroblasts; Balsalobre et al. 2000; cited from earlier work.
Test [5] has as its target T1, mLATS2 fused to the GAL4 DNA binding domain (pGBKT7-mLATS2) (mouse, UniProt P04386 1-147; Q7TSJ6 1-1042).
T1 construct: Yeast two-hybrid construct made by inserting the Bsm I-Xho I fragment of pcDNA3-mLATS2 into pGBKT7-mLATS2b; also called mLATS2/2b
The test is described as follows: yeast two-hybrid assay.

Entries after “also recorded” stand apart in the source; their conditions may differ.

As for `CNC[C@H](O)c1cccc(O)c1` [phenylephrine], in test [1], the “expression levels relative to the forskolin positive control” value was “slightly diminished” and the “luciferase activity relative to control” value is listed as “increased luciferase activity”.

On to `CCCCCCCCCCCCCC(=O)O[C@@H]1[C@@H](C)[C@@]2(O)[C@@H](C=C(CO)C[C@]3(O)C(=O)C(C)=C[C@@H]23)[C@@H]2C(C)(C)[C@]12OC(C)=O` [PMA, phorbol-12-myristate-13-acetate], for which, in test [2], the mPer2 expression entry was “neither dexamethasone nor PMA had a significant effect”. Also, the mPer1 expression result in test [3] is listed as “not affected”. In test [4], the “Per1 induction and circadian gene expression” value was “induce mPer1 expression and elicit circadian gene expression; also recorded: induce immediate Per1 up-regulation and trigger circadian expression”.

With `Cc1ccc(N(CC2=NCCN2)c2cccc(O)c2)cc1` [pentolamine], in test [1], the “expression levels relative to the forskolin positive control” value is recorded as “slightly diminished” and the “luciferase activity relative to control” value was “increased luciferase activity”.

Consider `CC(C)NCC(O)c1ccc(O)c(O)c1` (stereo not shown) [isoproterenol], for which, in test [1], the “expression levels relative to the forskolin positive control” value is “slightly diminished” and the “luciferase activity relative to control” value is reported as “increased luciferase activity”.

B1: mRBT1C76 fused to the GAL4 activation domain (pGADT7-mRBT1C76) (other, UniProt P04386 768-881, looked up)
chain: ANFNQSGNIADSSLSFTFTNSSNGPNLITTQTNSQALSQPIASSNVHDNFMNNEITASKIDDGNNSKPLSPGWTDQTAYNAFGITTGMFNTTTMDDVYNYLFDDEDTPPNPKKEPQNEIVSQADPVFLEALSSRYLGDSGLDDFFLDIDTSAVEKDVALPPPEPPHSLFCSPGSWEWNELDHIMEIILGS
notes: Yeast two-hybrid construct; also called C-terminal 76 amino acids of mRBT1
On to B1, for which, in test [5], the binding result is “no binding”.

The values above are taken from patent US20030180947A1, “Circadian control of stem/progenitor cell self-renewal and differentiation and of clock controlled gene expression” (priority 2001, published 2003).
